{"source": "PubChem BioAssay AID256", "about": "(DTP/NCI, 2004)", "test_system": "CD2F1 mice, L1210 leukemia ip, survival T/C", "experiment": "NCI In Vivo Anticancer Drug Screen. Data for tumor model L1210 Leukemia (intraperitoneal) in CD2F1 (CDF1) mice", "conditions": "endpoint: mean survival time, higher = longer survival", "how_it_was_run": "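Vehicle-treated tumor-bearing mice served as controls (C) for compound-treated mice (T). Reported figure is T divided by C.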", "key": {"[1]": {"conditions": "dose: 100.0 mg/kg/injection, schedule: Q01DX009 (ip), vehicle: saline with Tween-80"}, "[2]": {"conditions": "dose: 200.0 mg/kg/injection, schedule: Q01DX009 (ip), vehicle: saline with Tween-80"}, "[3]": {"conditions": "dose: 400.0 mg/kg/injection, schedule: Q01DX009 (ip), vehicle: saline with Tween-80"}, "[4]": {"conditions": "dose: 25.0 mg/kg/injection, schedule: Q01DX009 (ip), vehicle: saline with Tween-80"}, "[5]": {"conditions": "dose: 50.0 mg/kg/injection, schedule: Q01DX009 (ip), vehicle: saline with Tween-80"}, "[6]": {"conditions": "dose: 100.0 mg/kg/injection, schedule: Q04DX003 (ip), vehicle: saline with Tween-80"}, "[7]": {"conditions": "dose: 200.0 mg/kg/injection, schedule: Q04DX003 (ip), vehicle: saline with Tween-80"}, "[8]": {"conditions": "dose: 400.0 mg/kg/injection, schedule: Q04DX003 (ip), vehicle: saline with Tween-80"}}, "note": "Several values for one entry are separate records, joined by “and”; a condition that tells them apart may be missing. Equal entries are not always repeated. Toxic doses and inconclusive results are not listed."}
{"smiles": "CC(=O)Nc1ccccc1N", "values": [{"measurement": "T/C", "setting": "dose: 50.0 mg/kg/injection, schedule: Q01DX009 (ip), vehicle: Klucel (hydroxypropylcellulose) (HPC)", "result": "100 % of control"}, {"measurement": "T/C", "setting": "dose: 100.0 mg/kg/injection, schedule: Q01DX009 (ip), vehicle: Klucel (hydroxypropylcellulose) (HPC)", "result": "94 % of control"}, {"measurement": "T/C", "setting": "dose: 200.0 mg/kg/injection, schedule: Q01DX009 (ip), vehicle: Klucel (hydroxypropylcellulose) (HPC)", "result": "103 % of control"}, {"measurement": "T/C", "setting": "dose: 400.0 mg/kg/injection, schedule: Q01DX009 (ip), vehicle: Klucel (hydroxypropylcellulose) (HPC)", "result": "107 % of control"}]}
{"smiles": "NC(=S)NNC(=O)c1ccccc1", "values": [{"measurement": "T/C", "setting": "dose: 100.0 mg/kg/injection, schedule: Q04DX003 (ip), vehicle: Klucel (hydroxypropylcellulose) (HPC)", "result": "91 % of control"}, {"measurement": "T/C", "setting": "dose: 200.0 mg/kg/injection, schedule: Q04DX003 (ip), vehicle: Klucel (hydroxypropylcellulose) (HPC)", "result": "91 % of control"}]}
{"smiles": "CN(C)/C=N\\c1ncnc2c1ncn2C1OC(CO)C2OC(C)(C)OC21", "note": "(stereo not given)", "values": [{"measurement": "T/C", "setting": "dose: 100.0 mg/kg/injection, schedule: Q04DX002 (ip), vehicle: saline with Tween-80", "result": "109 % of control"}, {"measurement": "T/C", "setting": "dose: 200.0 mg/kg/injection, schedule: Q04DX002 (ip), vehicle: saline with Tween-80", "result": "109 % of control"}, {"measurement": "T/C", "setting": "dose: 400.0 mg/kg/injection, schedule: Q04DX002 (ip), vehicle: saline with Tween-80", "result": "114 % of control"}]}
{"smiles": "COc1cc2c(cc1O)C(O)CNC2", "note": "(stereo not given)", "values": [{"measurement": "T/C", "setting": "dose: 100.0 mg/kg/injection, schedule: Q01DX001 (ip), vehicle: saline", "result": "104 % of control"}, {"measurement": "T/C", "setting": "dose: 200.0 mg/kg/injection, schedule: Q01DX001 (ip), vehicle: saline", "result": "93 % of control"}, {"measurement": "T/C", "setting": "dose: 400.0 mg/kg/injection, schedule: Q01DX001 (ip), vehicle: saline", "result": "98 % of control"}]}
{"smiles": "C#CC[N+](CCO)(CCO)CCCCCCCCCCCCCCCCCC", "values": [{"measurement": "T/C", "setting": "dose: 12.5 mg/kg/injection, schedule: Q04DX002 (ip), vehicle: saline with Tween-80", "result": "101 % of control"}, {"measurement": "T/C", "setting": "dose: 25.0 mg/kg/injection, schedule: Q04DX002 (ip), vehicle: saline with Tween-80", "result": "101 % of control"}, {"measurement": "T/C", "setting": "dose: 50.0 mg/kg/injection, schedule: Q04DX002 (ip), vehicle: saline with Tween-80", "result": "101 % of control"}]}
{"smiles": "CN(C)c1nc(Cl)cc2c1ncn2C1OC(CO)C(O)C1O", "note": "(stereo not given)", "values": [{"measurement": "T/C", "setting": "dose: 100.0 mg/kg/injection, schedule: Q01DX005 (ip), vehicle: saline", "result": "117 % of control"}]}
{"smiles": "COc1cc(-c2ccc3cc(OC)c(OC)c(OC)c3c2)cc(OC)c1OC", "values": [{"measurement": "T/C", "setting": "[1]", "result": "96 % of control"}, {"measurement": "T/C", "setting": "[2]", "result": "98 % of control"}, {"measurement": "T/C", "setting": "[3]", "result": "96 % of control"}]}
{"smiles": "O=C1CN(Cc2ccc3c(c2)OCO3)NO1", "values": [{"measurement": "T/C", "setting": "dose: 6.25 mg/kg/injection, schedule: Q01DX009 (ip), vehicle: saline with Tween-80", "result": "98 % of control and 101 % of control"}, {"measurement": "T/C", "setting": "dose: 12.5 mg/kg/injection, schedule: Q01DX009 (ip), vehicle: saline with Tween-80", "result": "98 % of control"}, {"measurement": "T/C", "setting": "[4]", "result": "102 % of control and 109 % of control"}, {"measurement": "T/C", "setting": "[5]", "result": "113 % of control"}, {"measurement": "T/C", "setting": "[1]", "result": "120 % of control and 104 % of control"}]}
{"smiles": "CNN=C1CCCC1", "values": [{"measurement": "T/C", "setting": "dose: 12.5 mg/kg/injection, schedule: Q01DX009 (ip), vehicle: saline", "result": "97 % of control"}, {"measurement": "T/C", "setting": "dose: 25.0 mg/kg/injection, schedule: Q01DX009 (ip), vehicle: saline", "result": "102 % of control"}]}
{"smiles": "c1ccc([Si]c2ccccc2)cc1", "values": [{"measurement": "T/C", "setting": "[6]", "result": "104 % of control"}, {"measurement": "T/C", "setting": "[7]", "result": "102 % of control"}, {"measurement": "T/C", "setting": "[8]", "result": "102 % of control"}]}
{"smiles": "CC(C(=O)c1ccccc1)=C(C(F)(F)F)C(F)(F)F", "values": [{"measurement": "T/C", "setting": "[1]", "result": "98 % of control"}, {"measurement": "T/C", "setting": "[6]", "result": "91 % of control"}, {"measurement": "T/C", "setting": "[2]", "result": "97 % of control"}, {"measurement": "T/C", "setting": "[7]", "result": "97 % of control"}, {"measurement": "T/C", "setting": "[3]", "result": "103 % of control"}, {"measurement": "T/C", "setting": "[8]", "result": "100 % of control"}]}
{"smiles": "OCC1OC(Nc2ncnc3snnc23)C(O)C1O", "note": "(stereo not given)", "values": [{"measurement": "T/C", "setting": "dose: 200.0 mg/kg/injection, schedule: Q04DX003 (ip), vehicle: saline", "result": "157 % of control"}, {"measurement": "T/C", "setting": "dose: 400.0 mg/kg/injection, schedule: Q04DX003 (ip), vehicle: saline", "result": "173 % of control"}]}
{"smiles": "CC(=O)OC1CCC2(C)CCCC(O)C2(O)C1", "note": "(stereo not given)", "values": [{"measurement": "T/C", "setting": "[4]", "result": "103 % of control"}, {"measurement": "T/C", "setting": "[5]", "result": "116 % of control"}, {"measurement": "T/C", "setting": "[1]", "result": "107 % of control"}, {"measurement": "T/C", "setting": "dose: 100.0 mg/kg/injection, schedule: Q04DX003 (ip), vehicle: acetone", "result": "101 % of control"}, {"measurement": "T/C", "setting": "dose: 150.0 mg/kg/injection, schedule: Q01DX009 (ip), vehicle: saline", "result": "97 % of control"}, {"measurement": "T/C", "setting": "dose: 225.0 mg/kg/injection, schedule: Q01DX009 (ip), vehicle: saline", "result": "100 % of control"}, {"measurement": "T/C", "setting": "dose: 335.0 mg/kg/injection, schedule: Q01DX009 (ip), vehicle: saline", "result": "91 % of control"}]}
{"smiles": "COC(=O)C12CCC(C)(C)CC1C1=CCC3C4(C)CCC(OC(C)=O)CC4CCC3(C)C1(C)CC2", "note": "(stereo not given)", "values": [{"measurement": "T/C", "setting": "dose: 100.0 mg/kg/injection, schedule: Q01DX001 (ip), vehicle: saline with Tween-80", "result": "93 % of control"}, {"measurement": "T/C", "setting": "[1]", "result": "100 % of control"}, {"measurement": "T/C", "setting": "dose: 200.0 mg/kg/injection, schedule: Q01DX001 (ip), vehicle: saline with Tween-80", "result": "92 % of control"}, {"measurement": "T/C", "setting": "[2]", "result": "100 % of control"}, {"measurement": "T/C", "setting": "dose: 400.0 mg/kg/injection, schedule: Q01DX001 (ip), vehicle: saline with Tween-80", "result": "97 % of control"}, {"measurement": "T/C", "setting": "[3]", "result": "109 % of control"}]}
